Measurements as given in PubChem BioAssay (NCI).
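96-well plates; 48 h exposure; 5 concentrations. Endpoints by linear interpolation between flanking doses. Not reached: highest tested concentration assigned. GI50 is the concentration that inhibits growth by half. TGI: concentration producing complete growth inhibition.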

What was measured:
Assay in all cases: NCI-60 cell line screen, 48 h
SR leukemia = test system: SR leukemia
HCC-2998 colon = test system: HCC-2998 colon
MOLT-4 leukemia = test system: MOLT-4 leukemia
SF-539 CNS = test system: SF-539 CNS
OVCAR-8 ovarian = test system: OVCAR-8 ovarian
SNB-75 CNS = test system: SNB-75 CNS
SK-MEL-28 melanoma = test system: SK-MEL-28 melanoma
UACC-257 melanoma = test system: UACC-257 melanoma
PC-3 prostate = test system: PC-3 prostate
NCI-H226 lung = test system: NCI-H226 lung
SW-620 colon = test system: SW-620 colon
KM12 colon = test system: KM12 colon
SK-MEL-2 melanoma = test system: SK-MEL-2 melanoma
HT29 colon = test system: HT29 colon
T-47D breast = test system: T-47D breast
EKVX NSCLC = test system: EKVX NSCLC
UO-31 renal = test system: UO-31 renal
HOP-62 NSCLC = test system: HOP-62 NSCLC
A498 renal = test system: A498 renal
HCT-116 colon = test system: HCT-116 colon
OVCAR-3 ovarian = test system: OVCAR-3 ovarian
SF-268 CNS = test system: SF-268 CNS
SN12C renal = test system: SN12C renal
HS 578T breast = test system: HS 578T breast
SNB-19 CNS = test system: SNB-19 CNS
CCRF-CEM leukemia = test system: CCRF-CEM leukemia
K-562 leukemia = test system: K-562 leukemia
MDA-MB-231 breast = test system: MDA-MB-231 breast
OVCAR-5 ovarian = test system: OVCAR-5 ovarian

In the case of COc1cc(C2NC(=O)C(C#N)=C(Nc3cccc(C)c3)S2)ccc1O (stereo not drawn), the GI50 (SR leukemia) is reported as > 100 µM, the TGI (SR leukemia) is reported as > 100 µM and the GI50 (HCC-2998 colon) is reported as > 100 µM. The TGI (HCC-2998 colon) was > 100 µM, the GI50 (MOLT-4 leukemia) was > 100 µM and the TGI (MOLT-4 leukemia) was > 100 µM. The GI50 (SF-539 CNS) was > 100 µM, the TGI (SF-539 CNS) was > 100 µM and the GI50 (OVCAR-8 ovarian) was > 100 µM. For the same compound, the TGI (OVCAR-8 ovarian) was > 100 µM, the GI50 (SNB-75 CNS) was > 100 µM and the TGI (SNB-75 CNS) was > 100 µM. For the same compound, the GI50 (SK-MEL-28 melanoma) was > 100 µM, the TGI (SK-MEL-28 melanoma) was > 100 µM and the GI50 (UACC-257 melanoma) was > 100 µM. The TGI (UACC-257 melanoma) was > 100 µM, the GI50 (PC-3 prostate) was > 100 µM and the TGI (PC-3 prostate) was > 100 µM. The GI50 (NCI-H226 lung) was > 100 µM, the TGI (NCI-H226 lung) was > 100 µM and the GI50 (SW-620 colon) was > 100 µM. For the same compound, the TGI (SW-620 colon) was > 100 µM, the GI50 (KM12 colon) was > 100 µM and the TGI (KM12 colon) was > 100 µM. The GI50 (SK-MEL-2 melanoma) was > 100 µM, the TGI (SK-MEL-2 melanoma) was > 100 µM and the GI50 (HT29 colon) was > 100 µM. The TGI (HT29 colon) was > 100 µM, the GI50 (T-47D breast) was > 100 µM and the TGI (T-47D breast) was > 100 µM. The GI50 (EKVX NSCLC) was > 100 µM, the TGI (EKVX NSCLC) was > 100 µM and the GI50 (UO-31 renal) was > 100 µM. For the same compound, the TGI (UO-31 renal) was > 100 µM, the GI50 (HOP-62 NSCLC) was > 100 µM and the TGI (HOP-62 NSCLC) was > 100 µM. For the same compound, the GI50 (A498 renal) was > 100 µM, the TGI (A498 renal) was > 100 µM and the GI50 (HCT-116 colon) was > 100 µM. For the same compound, the TGI (HCT-116 colon) was > 100 µM, the GI50 (OVCAR-3 ovarian) was > 100 µM and the TGI (OVCAR-3 ovarian) was > 100 µM. The GI50 (SF-268 CNS) was > 100 µM, the TGI (SF-268 CNS) was > 100 µM and the GI50 (SN12C renal) was > 100 µM. The TGI (SN12C renal) was > 100 µM, the GI50 (HS 578T breast) was > 100 µM and the TGI (HS 578T breast) was > 100 µM. For the same compound, the GI50 (SNB-19 CNS) was > 100 µM, the TGI (SNB-19 CNS) was > 100 µM and the GI50 (CCRF-CEM leukemia) was > 100 µM. For the same compound, the TGI (CCRF-CEM leukemia) was > 100 µM, the GI50 (K-562 leukemia) was > 100 µM and the TGI (K-562 leukemia) was > 100 µM. For the same compound, the GI50 (MDA-MB-231 breast) was > 100 µM, the TGI (MDA-MB-231 breast) was > 100 µM and the GI50 (OVCAR-5 ovarian) was > 100 µM. The TGI (OVCAR-5 ovarian) was > 100 µM.
